ChEMBL document CHEMBL3991601, “The target landscape of clinical kinase drugs” (Science, 2017)
Where a name gives a salt, the structure may show the parent alone. Calls of active or inactive are those of the source.

Assays:
[1] = biological target: Mitogen-activated protein kinase 3 (Homo sapiens, UniProt P27361)
[2] = biological target: T1, Probable ATP-dependent RNA helicase DDX6 (Homo sapiens, UniProt P26196)
T1 sequence (P26196 whole entry): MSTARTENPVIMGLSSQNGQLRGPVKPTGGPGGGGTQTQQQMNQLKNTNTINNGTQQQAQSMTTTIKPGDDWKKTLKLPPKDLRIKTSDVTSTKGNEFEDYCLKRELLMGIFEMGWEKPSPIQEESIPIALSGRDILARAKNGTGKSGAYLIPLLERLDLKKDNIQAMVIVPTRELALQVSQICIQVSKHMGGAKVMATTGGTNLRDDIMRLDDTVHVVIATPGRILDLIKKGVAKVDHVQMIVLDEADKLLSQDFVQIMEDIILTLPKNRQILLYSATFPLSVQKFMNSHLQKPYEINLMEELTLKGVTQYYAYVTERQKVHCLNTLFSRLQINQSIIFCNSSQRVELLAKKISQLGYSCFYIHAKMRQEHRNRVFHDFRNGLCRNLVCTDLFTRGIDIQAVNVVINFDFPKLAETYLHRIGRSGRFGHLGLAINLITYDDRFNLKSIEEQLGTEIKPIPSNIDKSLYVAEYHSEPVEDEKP

ADP/ATP translocase 2 = biological target: T2, ADP/ATP translocase 2 (Homo sapiens, UniProt P05141)
T2 sequence (P05141 whole entry): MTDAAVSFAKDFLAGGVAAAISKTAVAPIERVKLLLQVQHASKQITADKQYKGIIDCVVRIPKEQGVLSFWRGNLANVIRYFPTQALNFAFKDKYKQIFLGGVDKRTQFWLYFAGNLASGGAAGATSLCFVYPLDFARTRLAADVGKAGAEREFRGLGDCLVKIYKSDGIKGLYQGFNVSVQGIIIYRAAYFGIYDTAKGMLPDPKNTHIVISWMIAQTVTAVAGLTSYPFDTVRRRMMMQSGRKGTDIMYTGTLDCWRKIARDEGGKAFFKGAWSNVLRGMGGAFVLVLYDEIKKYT

[3] = biological target: Ribosomal protein S6 kinase alpha-4 (Homo sapiens, UniProt O75676)
[4] = biological target: T3, Serine/threonine-protein kinase LATS1 (Homo sapiens, UniProt O95835)
T3 sequence (O95835 whole entry): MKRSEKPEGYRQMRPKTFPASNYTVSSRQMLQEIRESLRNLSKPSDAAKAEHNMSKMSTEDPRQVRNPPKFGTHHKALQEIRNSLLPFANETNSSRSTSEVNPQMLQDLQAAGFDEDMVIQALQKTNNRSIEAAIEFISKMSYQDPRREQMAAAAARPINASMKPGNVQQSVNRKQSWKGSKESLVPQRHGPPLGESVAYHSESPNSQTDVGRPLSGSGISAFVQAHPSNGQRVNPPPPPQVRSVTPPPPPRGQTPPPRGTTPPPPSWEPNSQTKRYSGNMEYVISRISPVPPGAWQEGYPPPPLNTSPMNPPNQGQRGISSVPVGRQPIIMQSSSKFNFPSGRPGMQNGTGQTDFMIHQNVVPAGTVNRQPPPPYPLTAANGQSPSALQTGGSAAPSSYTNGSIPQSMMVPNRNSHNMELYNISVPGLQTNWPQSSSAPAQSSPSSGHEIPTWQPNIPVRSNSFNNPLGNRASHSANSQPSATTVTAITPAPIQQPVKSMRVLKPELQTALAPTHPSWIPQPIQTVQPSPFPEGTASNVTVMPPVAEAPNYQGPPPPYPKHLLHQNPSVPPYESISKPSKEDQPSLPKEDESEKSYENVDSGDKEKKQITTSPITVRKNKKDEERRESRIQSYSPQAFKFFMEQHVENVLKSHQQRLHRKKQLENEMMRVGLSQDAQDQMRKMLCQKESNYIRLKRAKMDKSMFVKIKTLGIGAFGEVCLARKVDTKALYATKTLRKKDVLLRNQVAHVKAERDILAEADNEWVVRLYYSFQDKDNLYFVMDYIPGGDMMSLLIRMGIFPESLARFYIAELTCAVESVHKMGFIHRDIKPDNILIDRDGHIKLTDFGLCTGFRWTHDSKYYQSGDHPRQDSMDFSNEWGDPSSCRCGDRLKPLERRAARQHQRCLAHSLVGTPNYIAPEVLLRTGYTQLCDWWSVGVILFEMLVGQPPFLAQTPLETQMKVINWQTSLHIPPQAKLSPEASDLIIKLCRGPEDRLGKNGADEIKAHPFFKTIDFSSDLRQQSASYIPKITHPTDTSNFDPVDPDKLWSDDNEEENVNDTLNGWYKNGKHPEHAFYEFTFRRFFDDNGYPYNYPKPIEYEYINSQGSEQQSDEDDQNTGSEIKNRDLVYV

[5] = biological target: 5'-AMP-activated protein kinase catalytic subunit alpha-1 (Homo sapiens, UniProt Q13131)
Midasin = Midasin (Homo sapiens, UniProt Q9NU22)
[6] = biological target: Serine/threonine-protein kinase B-raf (Homo sapiens, UniProt P15056)
[7] = biological target: Mitotic checkpoint serine/threonine-protein kinase BUB1 (Homo sapiens, UniProt O43683)
[8] = biological target: T4, Cysteine--tRNA ligase, cytoplasmic (Homo sapiens, UniProt P49589)
T4 sequence (P49589 whole entry): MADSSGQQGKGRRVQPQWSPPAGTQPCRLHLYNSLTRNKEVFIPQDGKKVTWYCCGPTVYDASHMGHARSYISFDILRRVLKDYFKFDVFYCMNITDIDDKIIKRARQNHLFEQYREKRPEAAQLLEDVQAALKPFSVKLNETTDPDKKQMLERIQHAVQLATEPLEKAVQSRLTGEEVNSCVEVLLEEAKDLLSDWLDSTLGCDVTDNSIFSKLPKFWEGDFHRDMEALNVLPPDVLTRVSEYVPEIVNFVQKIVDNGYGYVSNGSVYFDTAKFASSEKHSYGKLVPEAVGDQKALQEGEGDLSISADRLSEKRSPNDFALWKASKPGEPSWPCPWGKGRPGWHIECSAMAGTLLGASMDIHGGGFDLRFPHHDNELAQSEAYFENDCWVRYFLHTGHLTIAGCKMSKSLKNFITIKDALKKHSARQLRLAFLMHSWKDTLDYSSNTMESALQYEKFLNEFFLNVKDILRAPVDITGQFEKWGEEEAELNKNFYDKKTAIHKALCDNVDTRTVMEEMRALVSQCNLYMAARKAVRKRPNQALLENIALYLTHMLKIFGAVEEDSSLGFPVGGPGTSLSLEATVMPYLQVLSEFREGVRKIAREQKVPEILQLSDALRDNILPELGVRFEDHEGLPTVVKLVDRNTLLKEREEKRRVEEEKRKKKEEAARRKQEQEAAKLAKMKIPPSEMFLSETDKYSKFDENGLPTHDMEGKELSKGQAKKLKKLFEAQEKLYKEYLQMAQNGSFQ
Note: in the data inactive means no Kd found up to 30 µM.

Sequence of Serine/threonine-protein kinase B-raf (P15056 whole entry): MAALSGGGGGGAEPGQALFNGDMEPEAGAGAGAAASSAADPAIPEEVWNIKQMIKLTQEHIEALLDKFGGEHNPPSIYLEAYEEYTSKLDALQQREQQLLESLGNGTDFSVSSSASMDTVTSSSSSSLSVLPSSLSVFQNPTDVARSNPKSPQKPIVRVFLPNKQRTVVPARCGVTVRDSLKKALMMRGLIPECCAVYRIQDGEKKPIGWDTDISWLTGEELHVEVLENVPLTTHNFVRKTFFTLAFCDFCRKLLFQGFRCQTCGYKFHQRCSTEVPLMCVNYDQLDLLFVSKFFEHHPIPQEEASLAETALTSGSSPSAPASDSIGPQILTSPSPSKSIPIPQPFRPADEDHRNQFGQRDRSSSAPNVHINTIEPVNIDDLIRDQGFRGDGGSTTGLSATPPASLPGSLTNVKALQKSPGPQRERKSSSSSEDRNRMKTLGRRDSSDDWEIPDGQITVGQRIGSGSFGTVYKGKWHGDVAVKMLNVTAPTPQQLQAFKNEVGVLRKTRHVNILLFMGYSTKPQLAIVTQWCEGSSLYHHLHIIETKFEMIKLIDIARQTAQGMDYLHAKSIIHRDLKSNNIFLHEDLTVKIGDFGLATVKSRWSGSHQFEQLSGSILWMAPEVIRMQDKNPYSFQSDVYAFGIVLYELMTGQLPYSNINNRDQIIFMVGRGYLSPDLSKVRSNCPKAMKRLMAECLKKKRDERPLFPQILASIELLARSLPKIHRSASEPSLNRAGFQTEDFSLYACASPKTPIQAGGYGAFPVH
Sequence of Mitotic checkpoint serine/threonine-protein kinase BUB1 (O43683 whole entry): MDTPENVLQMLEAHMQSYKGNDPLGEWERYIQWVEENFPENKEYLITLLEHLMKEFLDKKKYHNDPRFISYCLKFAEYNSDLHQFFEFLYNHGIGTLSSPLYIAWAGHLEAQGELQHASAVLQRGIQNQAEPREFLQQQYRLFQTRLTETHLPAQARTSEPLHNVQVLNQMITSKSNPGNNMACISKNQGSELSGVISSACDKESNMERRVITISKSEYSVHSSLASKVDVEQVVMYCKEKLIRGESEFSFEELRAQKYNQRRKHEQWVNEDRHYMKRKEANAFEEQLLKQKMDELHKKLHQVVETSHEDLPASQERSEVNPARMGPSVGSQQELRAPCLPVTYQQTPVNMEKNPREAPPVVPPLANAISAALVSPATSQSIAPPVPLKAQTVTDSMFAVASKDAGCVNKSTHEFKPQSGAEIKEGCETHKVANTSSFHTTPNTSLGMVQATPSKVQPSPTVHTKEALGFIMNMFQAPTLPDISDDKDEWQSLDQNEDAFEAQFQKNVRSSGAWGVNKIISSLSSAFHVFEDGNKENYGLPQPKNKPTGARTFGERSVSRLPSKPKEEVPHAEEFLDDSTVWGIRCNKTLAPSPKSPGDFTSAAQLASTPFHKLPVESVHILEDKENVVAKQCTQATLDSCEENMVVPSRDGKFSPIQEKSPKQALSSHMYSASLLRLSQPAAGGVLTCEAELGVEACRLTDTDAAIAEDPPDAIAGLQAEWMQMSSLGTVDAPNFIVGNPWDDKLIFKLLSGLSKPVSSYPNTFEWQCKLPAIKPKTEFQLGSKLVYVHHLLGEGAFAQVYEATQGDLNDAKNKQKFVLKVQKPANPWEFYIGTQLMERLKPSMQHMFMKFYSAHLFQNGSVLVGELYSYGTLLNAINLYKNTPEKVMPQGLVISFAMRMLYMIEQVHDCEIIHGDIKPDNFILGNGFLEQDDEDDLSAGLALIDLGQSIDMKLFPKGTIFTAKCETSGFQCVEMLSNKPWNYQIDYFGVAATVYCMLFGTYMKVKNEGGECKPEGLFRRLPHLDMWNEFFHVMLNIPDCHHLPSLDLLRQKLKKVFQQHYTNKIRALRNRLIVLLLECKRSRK
Sequence of Mitogen-activated protein kinase 3 (P27361 whole entry): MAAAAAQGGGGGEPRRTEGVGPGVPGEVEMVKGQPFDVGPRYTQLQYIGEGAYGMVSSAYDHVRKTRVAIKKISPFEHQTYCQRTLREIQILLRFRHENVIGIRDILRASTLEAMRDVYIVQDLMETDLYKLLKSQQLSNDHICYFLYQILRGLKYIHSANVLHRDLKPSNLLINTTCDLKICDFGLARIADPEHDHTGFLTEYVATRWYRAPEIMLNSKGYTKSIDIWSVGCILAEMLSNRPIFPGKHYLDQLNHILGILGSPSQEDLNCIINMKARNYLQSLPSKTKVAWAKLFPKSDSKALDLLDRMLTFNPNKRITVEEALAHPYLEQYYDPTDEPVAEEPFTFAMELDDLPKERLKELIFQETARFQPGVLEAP
Sequence of Ribosomal protein S6 kinase alpha-4 (O75676 whole entry): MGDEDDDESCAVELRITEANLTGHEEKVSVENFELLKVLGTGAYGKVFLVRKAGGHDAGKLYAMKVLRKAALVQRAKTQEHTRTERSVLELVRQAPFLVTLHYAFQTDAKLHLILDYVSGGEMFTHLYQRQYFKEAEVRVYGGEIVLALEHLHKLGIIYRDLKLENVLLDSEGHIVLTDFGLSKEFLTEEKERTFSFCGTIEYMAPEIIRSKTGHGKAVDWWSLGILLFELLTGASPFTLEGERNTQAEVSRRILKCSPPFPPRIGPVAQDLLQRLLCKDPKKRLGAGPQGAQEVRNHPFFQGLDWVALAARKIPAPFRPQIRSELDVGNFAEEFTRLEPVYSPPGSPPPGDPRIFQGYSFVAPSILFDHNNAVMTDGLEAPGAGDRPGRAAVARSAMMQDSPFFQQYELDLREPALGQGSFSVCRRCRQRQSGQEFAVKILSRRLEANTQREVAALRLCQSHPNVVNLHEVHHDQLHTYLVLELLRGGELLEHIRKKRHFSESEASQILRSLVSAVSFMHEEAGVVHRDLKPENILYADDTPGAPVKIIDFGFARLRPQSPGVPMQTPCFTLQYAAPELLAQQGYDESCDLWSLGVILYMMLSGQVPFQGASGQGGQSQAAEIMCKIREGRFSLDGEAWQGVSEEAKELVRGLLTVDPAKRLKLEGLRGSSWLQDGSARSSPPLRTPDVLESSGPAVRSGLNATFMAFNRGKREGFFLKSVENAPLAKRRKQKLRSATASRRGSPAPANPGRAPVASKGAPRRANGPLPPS
Sequence of 5'-AMP-activated protein kinase catalytic subunit alpha-1 (Q13131 whole entry): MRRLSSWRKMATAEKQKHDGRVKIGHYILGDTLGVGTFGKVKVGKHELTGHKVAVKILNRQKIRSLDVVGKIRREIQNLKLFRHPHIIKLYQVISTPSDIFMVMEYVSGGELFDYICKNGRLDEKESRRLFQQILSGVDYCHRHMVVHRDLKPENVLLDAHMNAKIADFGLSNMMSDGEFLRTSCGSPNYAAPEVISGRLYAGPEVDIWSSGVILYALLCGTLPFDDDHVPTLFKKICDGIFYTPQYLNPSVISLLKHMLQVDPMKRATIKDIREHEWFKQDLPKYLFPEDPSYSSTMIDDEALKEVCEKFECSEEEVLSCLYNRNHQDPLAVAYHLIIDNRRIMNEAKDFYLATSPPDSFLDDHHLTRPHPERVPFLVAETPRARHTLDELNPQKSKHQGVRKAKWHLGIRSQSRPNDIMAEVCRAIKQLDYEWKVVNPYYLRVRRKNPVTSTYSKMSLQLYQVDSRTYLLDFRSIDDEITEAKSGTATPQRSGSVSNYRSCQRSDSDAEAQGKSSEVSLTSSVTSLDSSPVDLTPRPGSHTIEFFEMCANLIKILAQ

Row | SMILES | Kd [1] | Kd [2] | Kd (ADP/ATP translocase 2) | Kd [3] | Kd [4] | Kd [5] | Kd (Midasin) | Kd [6] | Kd [7] | Kd [8]
1 | C[C@@H](Oc1cc(C(=O)Nc2ccc(C(=O)N3CCN(C)CC3)cc2)nnc1N)c1c(Cl)ccc(F)c1Cl | > 30 µM (inactive) | > 30 µM (inactive) | > 30 µM (inactive) | > 30 µM (inactive) | > 30 µM (inactive) | > 30 µM (inactive) | > 30 µM (inactive) | > 30 µM (inactive) | > 30 µM (inactive) | –
2 | C[C@H]1CNCCCN1S(=O)(=O)c1cccc2cncc(F)c12 | > 30 µM (inactive) | > 30 µM (inactive) | > 30 µM (inactive) | > 30 µM (inactive) | > 30 µM (inactive) | 3.27 µM (active) | > 30 µM (inactive) | > 30 µM (inactive) | > 30 µM (inactive) | –
3 | Cc1csc(-c2nnc(Nc3ccc(Oc4ncccc4-c4ccnc(N)n4)cc3)c3ccccc23)c1 [AMG-900] | > 30 µM (inactive) | > 30 µM (inactive) | > 30 µM (inactive) | 2.07 µM (active) | > 30 µM (inactive) | > 30 µM (inactive) | – | 2.48 µM (active) | > 30 µM (inactive) | –
4 | C=CC(=O)Nc1cc2c(Nc3ccc(F)c(Cl)c3)ncnc2cc1C#CC(C)(C)N1CCN(C)CC1 [AV-412 FREE BASE] | > 30 µM (inactive) | > 30 µM (inactive) | > 30 µM (inactive) | > 30 µM (inactive) | > 30 µM (inactive) | > 30 µM (inactive) | > 30 µM (inactive) | > 30 µM (inactive) | > 30 µM (inactive) | –
5 | NC(=O)Nc1cc(-c2cccc(F)c2)sc1C(=O)N[C@H]1CCCNC1 [AZD-7762] | > 30 µM (inactive) | > 30 µM (inactive) | > 30 µM (inactive) | 0.879 µM (active) | > 30 µM (inactive) | 0.762 µM (active) | > 30 µM (inactive) | > 30 µM (inactive) | – | –
6 | CCS(=O)(=O)N1CCN(c2ccc(Nc3ncc(C(N)=O)c(NC4CC4)n3)cc2)CC1 [Cerdulatinib Hydrochloride] | > 30 µM (inactive) | > 30 µM (inactive) | > 30 µM (inactive) | > 30 µM (inactive) | 0.261 µM (active) | 10.8 µM (active) | > 30 µM (inactive) | > 30 µM (inactive) | 0.437 µM (active) | –
7 | Cc1nc2cc(-n3ncc(C(=O)c4cc5ccccc5[nH]4)c3N)ccc2[nH]1 [FGFR INHIBITOR DEBIO 1347] | > 30 µM (inactive) | > 30 µM (inactive) | > 30 µM (inactive) | > 30 µM (inactive) | > 30 µM (inactive) | > 30 µM (inactive) | > 30 µM (inactive) | > 30 µM (inactive) | > 30 µM (inactive) | –
8 | O=C(Nc1nc2cccc(-c3ccc(CN4CCS(=O)(=O)CC4)cc3)n2n1)C1CC1 [FILGOTINIB] | > 30 µM (inactive) | > 30 µM (inactive) | > 30 µM (inactive) | > 30 µM (inactive) | > 30 µM (inactive) | > 30 µM (inactive) | > 30 µM (inactive) | > 30 µM (inactive) | > 30 µM (inactive) | –
9 | COc1ccc(S(=O)(=O)N(C(C)=O)c2ccccc2/C=C/c2cc[n+]([O-])cc2)cc1 [HMN-214] | > 30 µM (inactive) | > 30 µM (inactive) | > 30 µM (inactive) | > 30 µM (inactive) | > 30 µM (inactive) | > 30 µM (inactive) | > 30 µM (inactive) | > 30 µM (inactive) | > 30 µM (inactive) | –
10 | CO[C@H]1C[C@@H]2CC[C@@H](C)[C@@](O)(O2)C(=O)C(=O)N2CCCC[C@H]2C(=O)O[C@H]([C@H](C)C[C@@H]2CC[C@@H](OP(C)(C)=O)[C@H](OC)C2)CC(=O)[C@H](C)/C=C(\C)[C@@H](O)[C@@H](OC)C(=O)[C@H](C)C[C@H](C)/C=C/C=C/C=C/1C [RIDAFOROLIMUS] | > 30 µM (inactive) | > 30 µM (inactive) | > 30 µM (inactive) | > 30 µM (inactive) | > 30 µM (inactive) | > 30 µM (inactive) | > 30 µM (inactive) | > 30 µM (inactive) | > 30 µM (inactive) | –
11 | CN1CCN(CCOc2cc(OC3CCOCC3)c3c(Nc4c(Cl)ccc5c4OCO5)ncnc3c2)CC1 [SARACATINIB] | > 30 µM (inactive) | > 30 µM (inactive) | > 30 µM (inactive) | > 30 µM (inactive) | > 30 µM (inactive) | > 30 µM (inactive) | > 30 µM (inactive) | > 30 µM (inactive) | > 30 µM (inactive) | –
12 | Cn1cc(-c2cnn3c(N)c(Br)c([C@@H]4CCCNC4)nc23)cn1 [SCH-900776] | > 30 µM (inactive) | > 30 µM (inactive) | > 30 µM (inactive) | 3.41 µM | 4.62 µM (active) | > 30 µM (inactive) | > 30 µM (inactive) | > 30 µM (inactive) | > 30 µM (inactive) | –
13 | COc1cc2c(Nc3ccc(Cl)c(Cl)c3F)ncnc2cc1OC[C@@H]1C[C@@H]2CN(C)C[C@@H]2C1 [TESEVATINIB] | > 30 µM (inactive) | > 30 µM (inactive) | > 30 µM (inactive) | > 30 µM (inactive) | > 30 µM (inactive) | > 30 µM (inactive) | > 30 µM (inactive) | – | > 30 µM (inactive) | > 30 µM (inactive)
14 | Cc1cc(Nc2ncnc3ccc(NC4=NC(C)(C)CO4)cc23)ccc1Oc1ccn2ncnc2c1 [TUCATINIB] | > 30 µM (inactive) | > 30 µM (inactive) | > 30 µM (inactive) | > 30 µM (inactive) | > 30 µM (inactive) | > 30 µM (inactive) | > 30 µM (inactive) | – | > 30 µM (inactive) | > 30 µM (inactive)
